# Experimental data as given in PubChem BioAssay (NCI).
# Several values for one entry are separate records, joined by “and”; a condition that tells them apart may be missing. Equal values may be shown once.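 Five compound concentrations were applied to cells in 96-well plates for 48 hours; endpoints were derived by simple linear interpolation of the resulting dose-response curve. GI50 is the concentration that inhibits growth by half. TGI: total growth inhibition.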
# How the values were obtained:
# Assay in all cases: NCI anticancer screen, dose series, 48 h
# [1] = tested on: HOP-92 NSCLC
# [2] = tested on: K-562 leukemia
# [3] = tested on: NCI-H460 lung
# [4] = tested on: OVCAR-3 ovarian
# [5] = tested on: OVCAR-4 ovarian
# [6] = tested on: SK-MEL-28 melanoma
# [7] = tested on: SK-MEL-5 melanoma
# [8] = tested on: SNB-75 CNS
# [9] = tested on: SR leukemia
# [10] = tested on: UACC-62 melanoma
Structure (SMILES),TGI [1],TGI [2],TGI [3],TGI [4],TGI [5],TGI [6],TGI [7],TGI [8],TGI [9],TGI [10],GI50 [1],GI50 [2],GI50 [3],GI50 [4],GI50 [5],GI50 [6],GI50 [7],GI50 [8],GI50 [9],GI50 [10]
c1ccc2c(c1)[Se]c1ccccc1[Se]2,76.3 µM,> 100 µM,> 100 µM,> 100 µM,67.1 µM,> 100 µM,> 100 µM,64.9 µM,> 100 µM,> 100 µM,,,,,,,,,,
COc1ccc(/C=C2/CCOC2=O)cc1,> 100 µM,> 100 µM,> 100 µM,> 100 µM,> 100 µM,> 100 µM,> 100 µM,> 100 µM,> 100 µM,> 100 µM,> 100 µM,> 100 µM,> 100 µM,> 100 µM,> 100 µM,> 100 µM,> 100 µM,> 100 µM,> 100 µM,> 100 µM
COc1cc(C(C)c2cc3c(cc2OCCOCCOc2cc4c(cc2C(C)c2cc(OC)c(OC)c(OC)c2)OCO4)OCO3)cc(OC)c1OC (stereo not given),> 100 µM,> 100 µM,> 100 µM,> 10 µM,> 100 µM,> 100 µM,> 100 µM,> 10 µM and 74.8 µM,> 10 µM,> 100 µM,,> 10 µM,> 100 µM,,> 100 µM,> 100 µM,> 10 µM,> 10 µM,,> 100 µM
CCCCCCCCOC(=O)c1cc(O)c(O)c(O)c1,15.6 µM,> 38.8 µM,10.9 µM,14.9 µM,> 100 µM,29.6 µM,11.6 µM,37.6 µM,10.3 µM,15.3 µM,0.686 µM,2.05 µM,2.73 µM,2.03 µM,2.63 µM,7.19 µM,3.26 µM,2.71 µM,0.352 µM,3.27 µM
COc1cccc(C(=O)O)c1Cc1cccc2ccccc12,,> 100 µM,> 100 µM,> 100 µM,> 100 µM,> 100 µM,> 100 µM,> 100 µM,> 100 µM,> 100 µM,,,,,,,,,,
COc1cc(C)c(N(C)C(=O)CN(C)C)cc1Nc1nc(Nc2cccc(F)c2C(N)=O)c2cc[nH]c2n1,16.2 µM,> 25 µM,> 25 µM,> 25 µM,> 25 µM,> 25 µM,> 25 µM,> 25 µM,> 23.3 µM,> 25 µM,0.645 µM,18.1 µM,> 23.2 µM,> 25 µM,> 25 µM,> 25 µM,13.3 µM,> 25 µM,7.85 µM,> 25 µM
CP(=O)(CCSc1ccccc1)c1ccccc1 (stereo not given),> 100 µM,> 100 µM,> 100 µM,> 100 µM,> 100 µM,> 100 µM,> 100 µM,> 100 µM,> 100 µM,> 100 µM,,,,,,,,,,
CN([N-]C(=O)CC(=O)[N-]N(C)C(=S)c1ccccc1)C(=S)c1ccccc1.[Cu+2],0.098 µM,,0.14 µM,0.03 µM,0.0619 µM,0.127 µM,0.192 µM,0.116 µM,,0.149 µM,0.0333 µM,< 0.01 µM,0.0227 µM,< 0.01 µM,< 0.01 µM,0.035 µM,0.0599 µM,0.0298 µM,< 0.01 µM,0.0332 µM
C=CC1(C)/C(=N\O)C(C)(CC)C(=O)N1O (stereo not given),> 100 µM,> 100 µM,> 100 µM,> 100 µM,> 100 µM,> 100 µM,> 100 µM,> 100 µM,> 100 µM,> 100 µM,,,,,,,,,,
C=C(C)[C@@H]1CC[C@]2(c3ncc(C)o3)CC[C@]3(C)[C@H](CC[C@@H]4[C@@](C)(CCC#N)[C@H](C(=C)C)CC[C@]43C)[C@@H]12,3.39 µM,> 100 µM,19.4 µM,15.5 µM,17.3 µM,18.4 µM,13.7 µM,16.6 µM,> 100 µM,6.96 µM,1.56 µM,2.99 µM,5.42 µM,4.16 µM,4.38 µM,5.42 µM,3.65 µM,2.44 µM,2.75 µM,2.38 µM
O=c1c2cc(-c3ccccc3)sc2nc2sc(-c3ccccc3)nn12,> 100 µM,> 100 µM,> 100 µM,> 100 µM,> 100 µM,,> 100 µM,> 100 µM,> 100 µM,> 100 µM,,,,,,,,,,
N#C/C(=C/c1cccs1)c1cccs1,> 100 µM,> 100 µM,> 100 µM,> 100 µM,> 100 µM,> 100 µM,> 100 µM,> 100 µM,> 100 µM,> 100 µM,27.8 µM,> 100 µM,> 100 µM,> 100 µM,> 100 µM,> 100 µM,> 100 µM,> 100 µM,> 100 µM,> 100 µM
CCCN(CCC)c1ccc(C=O)c(OC)c1,86.7 µM,> 100 µM,> 100 µM,33.9 µM,91.7 µM,83.9 µM,29.3 µM,95.9 µM,34.5 µM,55.4 µM,13.3 µM,19.2 µM,24 µM,15.1 µM,19.4 µM,21.3 µM,14.5 µM,16.4 µM,10.7 µM,16.3 µM
CN1CCN(c2ccc3nc(-c4ccc5nc(-c6ccc(C(F)(F)F)cc6)[nH]c5c4)[nH]c3c2)CC1,14.7 µM,,3.55 µM,3.1 µM,3.45 µM,3.34 µM,15.5 µM,9.97 µM,5.11 µM,3.05 µM,2.49 µM,,1.9 µM,1.58 µM,1.74 µM,1.77 µM,3.36 µM,1.87 µM,1.7 µM,1.58 µM
Cc1ccc2nc(NC(=O)CSC(=S)N3CCN(Cc4ccccc4)CC3)sc2c1,> 100 µM,> 100 µM,> 100 µM,> 100 µM,> 100 µM,> 100 µM,> 100 µM,> 100 µM,> 100 µM,> 100 µM,4.05 µM,> 100 µM,> 100 µM,> 100 µM,> 100 µM,> 100 µM,56 µM,> 100 µM,> 100 µM,> 100 µM
COc1cc2c3c(n(CCCn4cccn4)c(=O)c2cc1OC)-c1cc2c(cc1C3=O)OCO2,18.6 µM,> 100 µM,13.3 µM,> 100 µM,66.1 µM,> 100 µM,5.24 µM,15.4 µM,1.57 µM,1.78 µM,1.34 µM,3.51 µM,0.52 µM,33.7 µM,19.7 µM,5.35 µM,1.48 µM,1.53 µM,0.0465 µM,0.359 µM
CCCCCn1ncc(-c2c(O)c(O)cc3c(O)c(-c4c(C)cc5c(-c6cnn(CCCCC)n6)c(O)c(O)cc5c4O)c(C)cc23)n1,0.242 µM,8.44 µM,0.465 µM,4.62 µM,4.49 µM,6.36 µM,2.31 µM,3.84 µM,7.27 µM,1.27 µM,0.0723 µM,0.0837 µM,0.0258 µM,0.0919 µM,0.176 µM,0.306 µM,0.388 µM,0.165 µM,0.201 µM,0.145 µM
COc1cc([N+](=O)[O-])c(S(=O)(=O)O)cc1-n1nc(-c2ccccc2)n[n+]1-c1cc(S(=O)(=O)[O-])c([N+](=O)[O-])cc1OC,,> 100 µM,> 100 µM,> 100 µM,> 100 µM,> 100 µM,> 100 µM,> 100 µM,> 100 µM,> 100 µM,,,,,,,,,,
CCN(CCc1ccc(F)cc1)c1ccc(CO)c(Cl)c1,13.5 µM,25.7 µM,21.6 µM,15.4 µM,15.3 µM,31.2 µM,25.9 µM,25.9 µM,42.5 µM,8.41 µM,1.94 µM,4.21 µM,6.3 µM,4.27 µM,2.23 µM,16.3 µM,13 µM,9.26 µM,13.1 µM,1.32 µM
CCN(CC)CCNc1ccc(CO)c2sc3ccccc3c(=O)c12,15 µM and 14.9 µM and 17.9 µM,,11 µM and 15.1 µM and 12.2 µM,20 µM [middle of 4 runs],18.9 µM [middle of 4 runs],,,17.7 µM and 29.1 µM and 9.2 µM,,,1.91 µM and 5.36 µM,,3.44 µM,,2.49 µM and 7.63 µM,2.29 µM,,4.27 µM and 14.4 µM and 2.33 µM,2.29 µM,1.94 µM and 11.3 µM
COc1cc2c(c(OC)c1OC)C(=O)c1c-2n(CCCN)c(=O)c2cc([N+](=O)[O-])ccc12,,7.98 µM,,2.4 µM,1.47 µM,3.97 µM,3.24 µM,3.31 µM,5.44 µM,24.2 µM,,2.86 µM,0.562 µM,1.06 µM,0.372 µM,1.76 µM,1.53 µM,1.41 µM,2.41 µM,9.16 µM
Cc1cc2cc(Oc3ccnc(Nc4cccc(CS(=O)(=O)NCCN(C)C)c4)n3)ccc2[nH]1,5.68 µM,,18.8 µM,15.8 µM,22.3 µM,25.1 µM,3.5 µM,4.89 µM,4.95 µM,14.4 µM,1.78 µM,,4.74 µM,4.3 µM,9.11 µM,12.1 µM,1.86 µM,1.31 µM,1.59 µM,3.85 µM
CO/N=C(\COc1ccc2c(=O)cc(-c3ccccc3)oc2c1)c1ccc(OC)cc1,96.4 µM,> 100 µM,,44.8 µM,> 100 µM,> 100 µM,> 100 µM,> 100 µM,> 100 µM,> 100 µM,20.2 µM,> 100 µM,,23.2 µM,56.2 µM,> 100 µM,> 100 µM,38.2 µM,> 100 µM,> 100 µM
O=C(/C=C/c1ccccc1)c1ccc(O)c(CN2CCN(c3cc4c(cc3F)c(=O)c(C(=O)O)cn4C3CC3)CC2)c1,,> 100 µM,> 100 µM,> 100 µM,> 100 µM,> 100 µM,7.48 µM,9.78 µM,> 100 µM,> 100 µM,,0.278 µM,3.85 µM,1.91 µM,16.7 µM,2.13 µM,1.89 µM,0.378 µM,0.807 µM,1.67 µM
CN1NC(c2ccccc2)=C(C#N)C(=O)CC1c1ccccc1Cl (stereo not given),> 100 µM,,> 100 µM,,> 100 µM,> 100 µM,> 100 µM,> 100 µM,> 100 µM,,,,,,,,,,,
C/C(=C\c1ccccc1)C(O)S(=O)(=O)O (stereo not given),,> 100 µM,> 100 µM,> 100 µM,> 100 µM,> 100 µM,> 100 µM,> 100 µM,> 100 µM,> 100 µM,,,,,,,,,,
CC(C)NCCCNC1=C(Cl)C(=O)c2ccccc2C1=O,31.2 µM,4.92 µM,16.4 µM,3.58 µM,,3.92 µM,2.88 µM,22.4 µM,6.08 µM,4.91 µM,14.6 µM,2.05 µM,3.96 µM,1.83 µM,,2.16 µM,1.54 µM,10.3 µM,2.27 µM,2.1 µM
C#Cc1cccc(N2C(=O)CC(=P(c3ccccc3)(c3ccccc3)c3ccccc3)C2=O)c1,,> 100 µM,> 100 µM,> 100 µM,> 100 µM,> 100 µM,83.7 µM,> 100 µM,> 100 µM,> 100 µM,,,,,,,,,,
COc1cc2c(C#N)n3c(c2cc1OC)C(=O)C(c1ccccc1)Oc1ccccc1-3 (stereo not given),5.52 µM,> 100 µM,,> 100 µM,> 100 µM,> 100 µM,,24.6 µM,> 100 µM,,1.46 µM,3.08 µM,,4.48 µM,2.89 µM,> 100 µM,,4.39 µM,2.58 µM,
